Organism: Rattus norvegicus
Assay: Open TG-GATES - Regimen: Daily Repeat
Type: toxicity, organism-based, Sprague-Dawley
Set-up: regimen Daily Repeat, gender Male, age 6 weeks
Details: in vivo, po, 300 mg/kg, route gavage, dose level High; for APTT / Bas / Eos / Fbg / Hb / Ht / Lym / MCH / MCHC / MCV / Mono / Neu / PT / Plat / RBC / Ret / WBC: tissue Blood; for KIDNEY_L / KIDNEY_R / KIDNEY_TOTAL: tissue Kidney; for LIVER: tissue Liver; for A/G / ALP / ALT / AST / BUN / CRE / Ca / Cl / DBIL / GLC / IP / K / LDH / Na / PL / RALB / TBIL / TC / TG / TP / gamma-GTP: tissue Plasma

Molecule `Brc1ccccc1` [BROMOBENZENE] has a TERMINAL_BW (72 h, time 3 day) of 204.3 g, an APTT (72 h, time 3 day) of 21.2 s and a Bas (72 h, time 3 day) of 0.6%. It also gave an Eos (72 h, time 3 day) of 1%, a Fbg (72 h, time 3 day) of 259.2 mg/dL and a Hb (72 h, time 3 day) of 13.1 g/dL. It also gave a Ht (72 h, time 3 day) of 38.3%, a Lym (72 h, time 3 day) of 78.4% and an MCH (72 h, time 3 day) of 21.2 pg. The MCHC (72 h, time 3 day) was 34.2%, the MCV (72 h, time 3 day) was 62.1 fL and the Mono (72 h, time 3 day) was 3%. The Neu (72 h, time 3 day) was 16.4%, the PT (72 h, time 3 day) was 12 s and the Plat (72 h, time 3 day) was 109.8 x10_4/uL. The RBC (72 h, time 3 day) was 616.6 x10_4/ul, the Ret (72 h, time 3 day) was 4.2% and the WBC (72 h, time 3 day) was 105.2 x10_2/uL. For the same molecule, the KIDNEY_L (72 h, time 3 day) was 0.9 g, the KIDNEY_R (72 h, time 3 day) was 0.9 g and the KIDNEY_TOTAL (72 h, time 3 day) was 1.8 g. The LIVER (72 h, time 3 day) was 12 g, the A/G (72 h, time 3 day) was 0.9 and the ALP (72 h, time 3 day) was 1821.4 IU/L. The ALT (72 h, time 3 day) was 70.8 IU/L, the AST (72 h, time 3 day) was 110.6 IU/L and the BUN (72 h, time 3 day) was 12.4 mg/dL. It also gave a CRE (72 h, time 3 day) of 0.2 mg/dL, a Ca (72 h, time 3 day) of 10.5 mg/dL and a Cl (72 h, time 3 day) of 104.8 meq/L. It also gave a DBIL (72 h, time 3 day) of 0.02 mg/dL, a GLC (72 h, time 3 day) of 177.6 mg/dL and an IP (72 h, time 3 day) of 7 mg/dL. For the same molecule, the K (72 h, time 3 day) was 4.1 meq/L, the LDH (72 h, time 3 day) was 124.2 IU/L and the Na (72 h, time 3 day) was 141.8 meq/L. The PL (72 h, time 3 day) was 184.6 mg/dL, the RALB (72 h, time 3 day) was 2.6 g/dL and the TBIL (72 h, time 3 day) was 0.08 mg/dL. It also gave a TC (72 h, time 3 day) of 96.4 mg/dL, a TG (72 h, time 3 day) of 88.4 mg/dL and a TP (72 h, time 3 day) of 5.4 g/dL. The gamma-GTP (72 h, time 3 day) was 1.4 IU/L, the TERMINAL_BW ([…], time 7 day) was 239.4 g and the TERMINAL_BW ([…], time 14 day) was 287 g. The TERMINAL_BW ([…], time 28 day) was 359.9 g, the APTT ([…], time 7 day) was 17.1 s and the Bas ([…], time 7 day) was 0%. It also gave an Eos ([…], time 7 day) of 0.6%, a Fbg ([…], time 7 day) of 278.2 mg/dL and a Hb ([…], time 7 day) of 12.6 g/dL. The Ht ([…], time 7 day) was 36.8%, the Lym ([…], time 7 day) was 74.4% and the MCH ([…], time 7 day) was 21.3 pg. For the same molecule, the MCHC ([…], time 7 day) was 34.3%, the MCV ([…], time 7 day) was 62.3 fL and the Mono ([…], time 7 day) was 3.2%. The Neu ([…], time 7 day) was 21.4%, the PT ([…], time 7 day) was 12.4 s and the Plat ([…], time 7 day) was 117.3 x10_4/uL. It also gave an RBC ([…], time 7 day) of 591.2 x10_4/ul, a Ret ([…], time 7 day) of 6.9% and a WBC ([…], time 7 day) of 101.2 x10_2/uL. The APTT ([…], time 14 day) was 18.6 s, the Bas ([…], time 14 day) was 0% and the Eos ([…], time 14 day) was 0.6%. It also gave a Fbg ([…], time 14 day) of 288.4 mg/dL, a Hb ([…], time 14 day) of 13.4 g/dL and a Ht ([…], time 14 day) of 39.2%. It also gave a Lym ([…], time 14 day) of 78.4%, an MCH ([…], time 14 day) of 20.3 pg and an MCHC ([…], time 14 day) of 34.1%. The MCV ([…], time 14 day) was 59.5 fL, the Mono ([…], time 14 day) was 2.6% and the Neu ([…], time 14 day) was 17.8%. The PT ([…], time 14 day) was 12.2 s, the Plat ([…], time 14 day) was 118 x10_4/uL and the RBC ([…], time 14 day) was 658 x10_4/ul. The Ret ([…], time 14 day) was 5.1%, the WBC ([…], time 14 day) was 106.3 x10_2/uL and the APTT ([…], time 28 day) was 18.2 s. It also gave a Bas ([…], time 28 day) of 0%, an Eos ([…], time 28 day) of 1% and a Fbg ([…], time 28 day) of 295.8 mg/dL. It also gave a Hb ([…], time 28 day) of 14.6 g/dL, a Ht ([…], time 28 day) of 42.5% and a Lym ([…], time 28 day) of 73.2%. For the same molecule, the MCH ([…], time 28 day) was 19.1 pg, the MCHC ([…], time 28 day) was 34.4% and the MCV ([…], time 28 day) was 55.5 fL. It also gave a Mono ([…], time 28 day) of 2.6%, a Neu ([…], time 28 day) of 23% and a PT ([…], time 28 day) of 12.7 s. It also gave a Plat ([…], time 28 day) of 96.5 x10_4/uL, an RBC ([…], time 28 day) of 765 x10_4/ul and a Ret ([…], time 28 day) of 2.5%. The WBC ([…], time 28 day) was 120.7 x10_2/uL, the KIDNEY_L ([…], time 7 day) was 1 g and the KIDNEY_R ([…], time 7 day) was 1 g. The KIDNEY_TOTAL ([…], time 7 day) was 2 g, the KIDNEY_L ([…], time 14 day) was 1.1 g and the KIDNEY_R ([…], time 14 day) was 1.1 g. For the same molecule, the KIDNEY_TOTAL ([…], time 14 day) was 2.2 g, the KIDNEY_L ([…], time 28 day) was 1.5 g and the KIDNEY_R ([…], time 28 day) was 1.5 g. It also gave a KIDNEY_TOTAL ([…], time 28 day) of 2.9 g, an LIVER ([…], time 7 day) of 13.4 g and an LIVER ([…], time 14 day) of 15.2 g. For the same molecule, the LIVER ([…], time 28 day) was 17.7 g, the A/G ([…], time 7 day) was 0.9 and the ALP ([…], time 7 day) was 1637 IU/L. It also gave an ALT ([…], time 7 day) of 44 IU/L, an AST ([…], time 7 day) of 65.2 IU/L and a BUN ([…], time 7 day) of 12.8 mg/dL. For the same molecule, the CRE ([…], time 7 day) was 0.2 mg/dL, the Ca ([…], time 7 day) was 11.3 mg/dL and the Cl ([…], time 7 day) was 105.6 meq/L. It also gave a DBIL ([…], time 7 day) of 0.012 mg/dL, a GLC ([…], time 7 day) of 187.4 mg/dL and an IP ([…], time 7 day) of 7 mg/dL. It also gave a K ([…], time 7 day) of 4 meq/L, an LDH ([…], time 7 day) of 99.6 IU/L and a Na ([…], time 7 day) of 144.2 meq/L. It also gave a PL ([…], time 7 day) of 171.2 mg/dL, an RALB ([…], time 7 day) of 2.8 g/dL and a TBIL ([…], time 7 day) of 0.052 mg/dL. The TC ([…], time 7 day) was 88 mg/dL, the TG ([…], time 7 day) was 94.8 mg/dL and the TP ([…], time 7 day) was 6 g/dL. The gamma-GTP ([…], time 7 day) was 1 IU/L, the A/G ([…], time 14 day) was 0.8 and the ALP ([…], time 14 day) was 1442.4 IU/L. The ALT ([…], time 14 day) was 45.8 IU/L, the AST ([…], time 14 day) was 69.4 IU/L and the BUN ([…], time 14 day) was 15 mg/dL. It also gave a CRE ([…], time 14 day) of 0.2 mg/dL, a Ca ([…], time 14 day) of 10.8 mg/dL and a Cl ([…], time 14 day) of 106.4 meq/L. The DBIL ([…], time 14 day) was 0.01 mg/dL, the GLC ([…], time 14 day) was 185.2 mg/dL and the IP ([…], time 14 day) was 6.4 mg/dL. For the same molecule, the K ([…], time 14 day) was 4 meq/L, the LDH ([…], time 14 day) was 63.2 IU/L and the Na ([…], time 14 day) was 144 meq/L. For the same molecule, the PL ([…], time 14 day) was 180.4 mg/dL, the RALB ([…], time 14 day) was 2.8 g/dL and the TBIL ([…], time 14 day) was 0.04 mg/dL. It also gave a TC ([…], time 14 day) of 89.4 mg/dL, a TG ([…], time 14 day) of 123.2 mg/dL and a TP ([…], time 14 day) of 6.1 g/dL. For the same molecule, the gamma-GTP ([…], time 14 day) was 1.2 IU/L, the A/G ([…], time 28 day) was 0.8 and the ALP ([…], time 28 day) was 1183.4 IU/L. For the same molecule, the ALT ([…], time 28 day) was 42.8 IU/L, the AST ([…], time 28 day) was 65.4 IU/L and the BUN ([…], time 28 day) was 15.2 mg/dL. It also gave a CRE ([…], time 28 day) of 0.2 mg/dL, a Ca ([…], time 28 day) of 10.4 mg/dL and a Cl ([…], time 28 day) of 106.8 meq/L. The DBIL ([…], time 28 day) was 0.022 mg/dL, the GLC ([…], time 28 day) was 185.2 mg/dL and the IP ([…], time 28 day) was 5.6 mg/dL. The K ([…], time 28 day) was 4 meq/L, the LDH ([…], time 28 day) was 73 IU/L and the Na ([…], time 28 day) was 143.4 meq/L. For the same molecule, the PL ([…], time 28 day) was 165.4 mg/dL, the RALB ([…], time 28 day) was 2.7 g/dL and the TBIL ([…], time 28 day) was 0.048 mg/dL. The TC ([…], time 28 day) was 79.8 mg/dL, the TG ([…], time 28 day) was 154.2 mg/dL and the TP ([…], time 28 day) was 6.2 g/dL. The gamma-GTP ([…], time 28 day) was 1.2 IU/L.

Source: ChEMBL document CHEMBL3885861, “Open TG-GATES”
